Reference: US20120115232A1, “METHOD FOR INDUCING DEGRADATION OF PROTEIN IN MAMMALIAN CELL” (OSAKA UNIVERSITY, priority 2009, published 2012)

System: GFP-aid-NLS marker protein
Assay: Induction of degradation of labeled protein of interest in transiently transfected COS1 cells, Western blot with GFP antibody
Assay type: cell-based, monkey
Settings: 500 μM auxin, 5 hours
Method: The EGFP segment of pIRES2-AcGFP1 (Clontech) was removed by treatment with restriction enzymes BstXI and NotI, into which EGFP-IAA17, which was amplified using pMK42 (an EGFP-IAA17-containing plasmid produced by the inventors) as a template and the following primer set, was inserted (the amplified sequence is shown in SEQ ID NO: 13). By this process, EGFP-IAA17 was cloned downstream of IRES. The resulting plasmid was treated with restriction enzymes XhoI and SmaI, and into this site, rice TIR1 tagged with 9Myc at its C terminus was inserted. By this process, the rice TIR1 was inserted between a CMV promoter and IRES, and the resulting plasmid was referred to as pNHK60. The pNHK60 was transferred into the proliferating COS1, CHO, and NIH3T3 cells using Lipofectamine 2000 (Invitrogen) for transient expression. The HEK293 cell shown in FIG. 4 is a HEK293 strain stably expressing pNHK60, which was obtained by transfer of the pNHK60 under the aforementioned conditions and subsequent selection by the addition of G418 to a medium.
In the experiment of transient expression, the cells were cultured in a medium to which 500 μM IAA or NAA was added, and after five hours, the cells were collected, from which extracts were prepared. […] The factors were detected by Western blotting.
The protein thus extracted was separated by SDS-PAGE and then transferred to a nitrocellulose membrane. Using an anti-Myc antibody (mouse monoclonal 9E10) and an anti-GFP antibody (mouse monoclonal 9E1), each kind of protein was detected by Western blotting. […] For migration control, total extracted proteins were detected by Ponceau staining. Since the […] TIR1 gene is tagged with 9Myc, the TIR1 protein can be detected by Western blotting with the aforementioned Myc antibody. Also, EGFP, which is a protein to be degraded in the complex protein, can be detected by Western blotting with the GFP antibody.
In a similar manner to Example 1, the induction of degradation of a labeled protein of interest was compared between the case in which an expression vector having the TIR1 family protein gene from rice linked between a virus promoter and IRES and the chimeric gene expressing a labeled protein of interest linked downstream thereof was transferred (corresponding to A in FIG. 5) and the case in which an expression vector having the chimeric gene expressing a labeled protein of interest linked between a virus promoter and IRES and the TIR1 family protein gene from rice linked downstream thereof was transferred (corresponding to B in FIG. 5). […] After extraction of a protein sample, the expressed GFP-aid-NLS marker protein was detected by Western blotting using the GFP antibody.

[1] = DNA construct A (rice TIR1 between virus promoter and IRES, chimeric gene downstream)
[2] = DNA construct B (chimeric gene between virus promoter and IRES, rice TIR1 downstream)

| SMILES | depletion of expressed GFP-aid-NLS marker protein [1] | depletion of expressed GFP-aid-NLS marker protein [2] |
| --- | --- | --- |
| O=C(O)Cc1c[nH]c2ccccc12 [IAA, indole-3-acetic acid] | efficiently depleted | no outstanding depletion |
| O=C(O)Cc1cccc2ccccc12 [NAA, 1-naphthaleneacetic acid] | efficiently depleted | no outstanding depletion |
